From patent US9987242B2, “Treatment of Levodopa-induced Dyskinesias” (NORTHWESTERN UNIVERSITY, priority 2015, dated 2018)

Test system: NMDAR-mediated currents in dSPNs
Assay: NMDAR-mediated uEPSCs and EPSCs in dSPNs, whole-cell voltage clamp
Format: cell-based, mice
Details: for amplitude of NMDAR-mediated uEPSCs: muscarine and VU10010 5 μM in the presence of SKF81297, glutamate uncaging
Experimental: For whole-cell voltage clamp recordings, patch pipettes were loaded with internal recording solution containing (mM): 120 CsMeSO3, 15 CsCl, 8 NaCl, 10 HEPES, 0.2 EGTA, 10 tetraethylammonium Chloride (TEA-Cl), 5 QX-314, 2 Mg-ATP, 0.3 Na-GTP; pH was adjusted to 7.25 with CsOH and osmolarity to ˜305 mOsm l^−1. All the recordings were made using a MultiClamp 700 A amplifier, and signals were filtered at 2 kHz and digitized at 10 kHz. Data were excluded when the series resistance changed >20% over the time course of the experiment. For perforated patch recordings, the internal recording solution comprised (in mM): 125 KMeSO4, 14 KCl, 2 MgCl2, 0.2 EGTA, 10 HEPES; pH was adjusted to 7.25 with NaOH and osmolarity to ˜280 mOsm l^−1. Amphotericin B was used to achieve electrical access through the perforated-patch method (Shen et al., 2007; 2008; herein incorporated by reference in their entireties). Capacitance current was continuously monitored during perforation by applying a 5-10 mV pulse from a holding potential of −70 mV. The amplifier bridge circuit was adjusted to compensate for series resistance and continuously monitored during recordings. Electrode capacitance was also compensated. Data were excluded when the input resistance (Ri) changed >20% over the time course of the experiment.
Glutamate uncaging was achieved using a Verdi/Mira (Coherent Laser Group, Santa Clara, Calif.) (Plotkin et al., 2014). 5 mM MNI-glutamate was superfused over the slice at 0.4 ml/hr using a syring pump and multi-barreled perfusion manifold (Cell MicroControls, Norfolk, Va.). The perfusion solution was (in mM): 124 NaCl, 3 KCl, 2 CaCl2, 1 NaH2PO4, 26 HEPES and 16.66 glucose, and also contained (in μM): 3 muscarine, 10 serine, 10 NBQX and 10 gabazine, plus or minus: 3 SKF81297 and/or 5 VU10010). Glutamate was uncaged adjacent to individual spines using 1 ms pulses of 720-725 nm light typically 10-20 mW in power at the sample plane. Photolysis power was tuned via a third Pockels cell modulator (Con Optics, Danbury, Conn.) to achieve uEPSCs≤5 pA. uEPSC amplitudes were measured from averaged (3-5 repetitions) traces. All uncaging experiments were performed in 0 mM Mg^2+-containing solutions.
To determine the situation in dSPNs, the effect of muscarine and VU10010 on NMDAR-mediated EPSCs evoked by uncaging glutamate on spine heads (uEPSCs) was examined in the presence of SKF81297.

With `Cc1cc(C)c2c(N)c(C(=O)NCc3ccc(Cl)cc3)sc2n1` [VU10010] the “muscarine modulation of NMDAR-mediated EPSCs” value (muscarine 3 μM + VU10010 5 μM, local electrical stimulation) was “augmented”, the “amplitude of NMDAR-mediated uEPSCs” value was “significantly reduced the amplitude” and the “amplitude of NMDAR-mediated uEPSCs” value (listed as VU 10010) was “suppressed NMDAR-mediated uEPSC currents”.
